Earlier results on 1 substance are cited in patent US6083980A, “Furanyl, tetracyclic triterpene derivatives with immunosuppressant activity” (Merck & Co., Inc., priority 1998, dated 2000).

This data set concerns Kv 1.3 channels (CHO cells transfected with Kv 1.3 channels). The conditions noted are these: stated for the reference blocker used to establish the efflux window.

Regarding “margatoxin (TIINVKCTSPKQCLPPCKAQFGQSAGAKCMNGKCKCYPH; UniProt P40755 1-39, looked up)”, the concentration for half-maximal inhibition (IC50) was 0.1 nM.

Usually IC50 stands for the point on the concentration scale where inhibition reaches its midpoint.
